Here are results for 4 compounds from DBAASP.

In brackets after ≈: the same amount, converted by molar mass. Several values for one entry are separate records, joined by “and”; a condition that tells them apart may be missing. Identical values can stand only once.

Some test systems named below: Acinetobacter baumannii; Bacillus subtilis 168; Escherichia coli K-12; Escherichia coli; Klebsiella pneumoniae; Listeria monocytogenes; Staphylococcus aureus; Staphylococcus aureus 75; Cupriavidus necator H16; Escherichia coli JM109; Aspergillus fumigatus; Escherichia coli D22; Micrococcus luteus A270.
Common to all, as to assay: ≥ marks a high value that may be exact or a test limit, other limits are often not marked, values filed in µg/mL are converted to µM
Assay [1] deals with Escherichia coli BNCC 133264.
Assay [2] has as its system Pseudomonas aeruginosa BNCC 125486.
Assay [3] deals with Pseudomonas aeruginosa PAO1.
The subject of assay [4] is Staphylococcus aureus BNCC 186335.
The subject of assay [5] is Staphylococcus aureus USA 300.
Assay [6] deals with Acinetobacter baumannii 97830.
Assay [7] has as its system Acinetobacter baumannii 9840.
For assay [8], the system named is Bacillus subtilis ATCC 23857.
Assay [9] has as its system Candida albicans NCPF 1467.
Assay [10] has as its system Escherichia coli ATCC 25922.
Assay [11] has as its system Escherichia coli NCTC 10418.
The subject of assay [12] is Pseudomonas aeruginosa 1570.
Assay [13] has as its system Pseudomonas aeruginosa 5167.
For assay [14], the system named is Pseudomonas aeruginosa ATCC 15692.
The test system of assay [15] is Salmonella enterica subsp. enterica serovar Typhimurium ATCC 14028.
Assay [16] has as its system Staphylococcus aureus 113.
The test system of assay [17] is Staphylococcus aureus 725.
The subject of assay [18] is Staphylococcus aureus 794.
The subject of assay [19] is Staphylococcus aureus 936.
Assay [20] relates to Staphylococcus aureus ATCC 25923.
Assay [21] deals with Staphylococcus aureus ATCC 33591.
In assay [22] the test system is Staphylococcus aureus NCTC 10788.
The subject of assay [23] is Staphylococcus epidermidis ATCC 12228.
Assay [24] relates to Escherichia coli BL21(DE3).
Assay [25] has as its system Pseudomonas putida GPp104.
The subject of assay [26] is Neurospora crassa CBS 327-54.
Assay [27] deals with Pseudomonas aeruginosa PTCC 2834.
In assay [28] the test system is Staphylococcus aureus PTCC 1442.

With `CC[C@H](C)[C@H](NC(=O)[C@H](CCCCN)NC(=O)[C@@H]1CCCN1C(=O)[C@@H](NC(=O)[C@H](CC(C)C)NC(=O)[C@H](CCCCN)NC(=O)[C@H](CC(C)C)NC(=O)[C@@H](NC(=O)[C@H](CO)NC(=O)CNC(=O)[C@H](Cc1ccccc1)NC(=O)[C@@H](N)Cc1ccccc1)C(C)C)[C@@H](C)CC)C(=O)N[C@@H](CC(C)C)C(N)=O` [FFGSVLKLIPKIL], the MIC against Acinetobacter baumannii is ≥ 43.4 µM; against Bacillus subtilis 168, 6.25 µM (≈ 9.21 µg/mL); in [1], ≥ 43.4 µM; in the assay with Escherichia coli K-12, 25 µM (≈ 36.8 µg/mL); against Escherichia coli, 21.7 µM (≈ 32 µg/mL); against Klebsiella pneumoniae it was > 43.4 µM. The MIC is 1.36 µM (≈ 2 µg/mL) with Listeria monocytogenes; ≥ 86.8 µM in assay [2]; > 100 µM in assay [3]; 1.36 µM (≈ 2 µg/mL) in assay [4]; 3.12 µM (≈ 4.6 µg/mL) in assay [5]; 1.36 µM (≈ 2 µg/mL) in the assay on Staphylococcus aureus.
For the compound `CC(C)C[C@H](NC(=O)[C@H](CC(C)C)NC(=O)[C@H](CCCCN)NC(=O)[C@H](CCCCN)NC(=O)[C@H](CC(C)C)NC(=O)[C@H](CC(C)C)NC(=O)[C@H](CCCCN)NC(=O)[C@H](CC(C)C)NC(=O)[C@@H](N)Cc1ccccc1)C(N)=O` [FLKLLKKLL], the minimum inhibitory concentration (MIC) in assay [6] came to 7.17 µM (≈ 7.99 µg/mL); in [7], 10.1 µM (≈ 11.3 µg/mL); in the assay with Acinetobacter baumannii, 10.1 µM (≈ 11.3 µg/mL); in assay [8], 3.59 µM (≈ 4 µg/mL); in [9], 7 µM (≈ 7.8 µg/mL); in assay [10] it was 28.7 µM (≈ 32 µg/mL). For the same compound, the minimal inhibitory concentration (MIC) in assay [11] is 14 µM (≈ 15.6 µg/mL); in [12], 7.17 µM (≈ 7.99 µg/mL); in assay [13], 14.3 µM (≈ 16 µg/mL); in [14] it was 7.17 µM (≈ 7.99 µg/mL); in assay [15], 14.3 µM (≈ 16 µg/mL); in assay [16] it was 7.17 µM (≈ 7.99 µg/mL). Besides, the MIC in [17] was 7.17 µM (≈ 7.99 µg/mL); in the assay on Staphylococcus aureus 75, 7.17 µM (≈ 7.99 µg/mL); in assay [18], 14.3 µM (≈ 16 µg/mL); in [19], 7.17 µM (≈ 7.99 µg/mL); in [20], 14.3 µM (≈ 16 µg/mL); in assay [21], 7.17 µM and 14.3 µM. The MIC in assay [22] worked out at 7 µM (≈ 7.8 µg/mL); in [23] it was 14.3 µM (≈ 16 µg/mL).
For the compound `CC[C@H](C)[C@H](NC(=O)[C@H](Cc1ccc(O)cc1)NC(=O)[C@@H](NC(=O)[C@@H]1CCCN1C(=O)[C@H](CCCN=C(N)N)NC(=O)[C@@H]1CCCN1C(=O)[C@H](CC(N)=O)NC(=O)[C@@H](N)CCCN=C(N)N)C(C)C)C(=O)N1CCC[C@H]1C(=O)N[C@@H](CCC(N)=O)C(=O)N1CCC[C@H]1C(=O)N[C@@H](CCCN=C(N)N)C(=O)N1CCC[C@H]1C(=O)N1CCC[C@H]1C(=O)N[C@@H](Cc1cnc[nH]1)C(=O)N1CCC[C@H]1C(=O)N[C@@H](CCCN=C(N)N)C(=O)N[C@@H](CC(C)C)C(=O)O` [RNPRPVYIPQPRPPHPRL], the MIC against Cupriavidus necator H16 is 25 µM (≈ 54.8 µg/mL); in [24], 0.313 µM (≈ 0.686 µg/mL); in the assay with Escherichia coli JM109, 6.25 µM (≈ 13.7 µg/mL); in assay [25], 6.25 µM (≈ 13.7 µg/mL).
For the compound `CSCC[C@H](NC(=O)[C@H](CO)NC(=O)[C@@H](N)CO)C(=O)N[C@@H](CCCCN)C(=O)N[C@@H](CC(C)C)C(=O)N[C@@H](CO)C(=O)N[C@@H](Cc1ccccc1)C(=O)N[C@@H](CCCN=C(N)N)C(=O)N[C@@H](C)C(=O)N[C@@H](CCCN=C(N)N)C(=O)N[C@@H](C)C(=O)N[C@@H](Cc1ccc(O)cc1)C(=O)NCC(=O)N[C@@H](Cc1ccccc1)C(=O)N[C@@H](CCCN=C(N)N)C(=O)NCC(=O)N1CCC[C@H]1C(=O)NCC(=O)N1CCC[C@H]1C(=O)N[C@@H](CCC(N)=O)C(=O)N[C@@H](CC(C)C)C(=O)O` [SSMKLSFRARAYGFRGPGPQL], the MIC was ≥ 80 µM with Aspergillus fumigatus; ≥ 150 µM in the assay on Escherichia coli D22; 15 µM (≈ 34.9 µg/mL) in the assay with Micrococcus luteus A270; ≥ 50 µM in assay [26]; 20.6 µM (≈ 48 µg/mL) in assay [27]; ≥ 43 µM in assay [28].
